The first test concerns KARPAS422 human B cell lymphoma cell. The experiment in a line: Cell proliferation, KARPAS422, 7 day treatment (WST-8). The format is cell-based. Conditions: Homo sapiens, KARPAS-422, 168 h, anti-proliferative IC50, Karpas 422 cell line, 7 day treatment; read-out: Karpas Cell line. Here is the method: “N/A” stands for “not assessed”.
Analysis of Cell Proliferation:
To assess the effect of PRC2 inhibition on cell growth, cells were seeded in 96-well cell culture plates at a density of 2 000-3 000 cells/well in 200 µL of culture medium, and treated with serially diluted compounds for 7 days at 37° C. in an atmosphere of 5% CO2. Cell growth was evaluated by a […] WST-8 assay (Dojindo Molecular Technologies) using a Tecan Infinite M1000 multimode microplate reader (Tecan, Morrisville, NC). The WST-8 reagent was added to the plate, incubated for 1-4 h, and read at 450 nm. The readings were normalized to the DMSO-treated cells, and the IC50 was calculated by nonlinear regression analysis using GraphPad Prism 6 software
Consider `O=C1c2ncn3c(NCc4c(F)ccc5c4CCO5)ncc(c23)-c2ccc(C(F)(F)F)cc2CN1CC1CCOCC1` [compound 66, 12-(((5-fluoro-2,3-dihydrobenzofuran-4-yl)methyl)amino)-4-((tetrahydro-2H-pyran-4-yl)methyl)-7-(trifluoromethyl)-4,5-dihydro-3H-2,4,11,12a-tetraazabenzo[4,5]cycloocta[1,2,3-cd]inden-3-one], for which the IC50 worked out at 0.74 nM.

Take `O=C1c2ncn3c(NCc4c(F)ccc5c4CCO5)ncc(c23)-c2ccc(C(F)(F)F)cc2CN1C1CC1` [compound 67, 4-cyclopropyl-12-(((5-fluoro-2,3-dihydrobenzofuran-4-yl)methyl)amino)-7-(trifluoromethyl)-4,5-dihydro-3H-2,4,11,12a-tetraazabenzo[4,5]cycloocta[1,2,3-cd]inden-3-one]: the IC50 was 7.78 nM.

For the compound `O=C1c2ncn3c(NCc4c(F)ccc5c4CCO5)ncc(c23)-c2ccc(C(F)(F)F)cc2CN1CC1COCCO1` (stereo not drawn) [compound 68, 4-((1,4-dioxan-2-yl)methyl)-12-(((5-fluoro-2,3-dihydrobenzofuran-4-yl)methyl)amino)-7-(trifluoromethyl)-4,5-dihydro-3H-2,4,11,12a-tetraazabenzo[4,5]cycloocta[1,2,3-cd]inden-3-one], the IC50 was found to be 1.35 nM.

`COc1cccc(F)c1CNc1ncc2c3c(ncn13)C(=O)N(C1CC1)Cc1nc(C(F)(F)F)ccc1-2` [compound 69, 4-cyclopropyl-12-((2-fluoro-6-methoxybenzyl)amino)-7-(trifluoromethyl)-4,5-dihydro-3H-2,4,6,11,12a-pentaazabenzo[4,5]cycloocta[1,2,3-cd]inden-3-one]: the IC50 is more than 100 nM.

As to `COc1cccc(F)c1CNc1ncc2c3c(ncn13)C(=O)N(C1CC1)Cc1cc(C(F)(F)F)ncc1-2` [compound 70, 4-cyclopropyl-12-((2-fluoro-6-methoxybenzyl)amino)-7-(trifluoromethyl)-4,5-dihydro-3H-2,4,8,11,12a-pentaazabenzo[4,5]cycloocta[1,2,3-cd]inden-3-one], the IC50 is more than 100 nM.

`COc1cccc(F)c1CNc1ncc2c3c(ncn13)C(=O)N(C(C)C)Cc1nc(C(F)(F)F)ccc1-2` [compound 71, 12-((2-fluoro-6-methoxybenzyl)amino)-4-isopropyl-7-(trifluoromethyl)-4,5-dihydro-3H-2,4,6,11,12a-pentaazabenzo[4,5]cycloocta[1,2,3-cd]inden-3-one]: the IC50 was more than 100 nM.

Take `O=C1c2ncn3c(NCc4c(F)ccc5c4CCO5)ncc(c23)-c2cnc(C(F)(F)F)cc2CN1CCF` [compound 72, 12-(((5-fluoro-2,3-dihydrobenzofuran-4-yl)methyl)amino)-4-(2-fluoroethyl)-7-(trifluoromethyl)-4,5-dihydro-3H-2,4,8,11,12a-pentaazabenzo[4,5]cycloocta[1,2,3-cd]inden-3-one]: the IC50 came out at 3.86 nM.

In the case of `CC(C)N1Cc2cc(C(F)(F)F)ncc2-c2cnc(NCc3c(F)ccc4c3CCO4)n3cnc(c23)C1=O` [compound 73, 12-(((5-fluoro-2,3-dihydrobenzofuran-4-yl)methyl)amino)-4-isopropyl-7-(trifluoromethyl)-4,5-dihydro-3H-2,4,8,11,12a-pentaazabenzo[4,5]cycloocta[1,2,3-cd]inden-3-one], the IC50 came out at 11.3 nM.

For the compound `CN1CCC(N2Cc3cc(C(F)(F)F)ccc3-c3cnc(NCc4c(F)ccc5c4CCO5)n4cnc(c34)C2=O)CC1` [compound 74, 12-(((5-fluoro-2,3-dihydrobenzofuran-4-yl)methyl)amino)-4-(1-methylpiperidin-4-yl)-7-(trifluoromethyl)-4,5-dihydro-3H-2,4,11,12a-tetraazabenzo[4,5]cycloocta[1,2,3-cd]inden-3-one], the IC50 was 47 nM.

Regarding `CC(F)(F)CN1Cc2nc(C(F)(F)F)ccc2-c2cnc(NCc3c(F)ccc4c3CCO4)n3cnc(c23)C1=O` [compound 77, 4-(2,2-difluoropropyl)-12-(((5-fluoro-2,3-dihydrobenzofuran-4-yl)methyl)amino)-7-(trifluoromethyl)-4,5-dihydro-3H-2,4,6,11,12a-pentaazabenzo[4,5]cycloocta[1,2,3-cd]inden-3-one], the IC50 came out at 22.5 nM.

For `O=C1c2ncn3c(NCc4c(F)ccc5c4CCO5)ncc(c23)-c2ccc(C(F)(F)F)cc2CN1CC(F)F` [compound 81, 4-(2,2-difluoroethyl)-12-(((5-fluoro-2,3-dihydrobenzofuran-4-yl)methyl)amino)-7-(trifluoromethyl)-4,5-dihydro-3H-2,4,11,12a-tetraazabenzo[4,5]cycloocta[1,2,3-cd]inden-3-one], the IC50 worked out at 1.43 nM.

For `CCOC(=O)c1ncn2c(NCc3ccccc3OC)ncc(-c3ccccc3)c12` [compound 129, ethyl 5-((2-methoxybenzyl)amino)-8-phenylimidazo[1,5-c]pyrimidine-1-carboxylate], the IC50 is more than 100 nM.

With `CCOC(=O)c1ncn2c(NCc3c(F)cccc3OC)ncc(-c3ccccc3)c12` [compound 130, ethyl 5-((2-fluoro-6-methoxybenzyl)amino)-8-phenylimidazo[1,5-c]pyrimidine-1-carboxylate], the IC50 was more than 100 nM.

Take `CCOC(=O)c1ncn2c(NCc3cc(OC)ccc3F)ncc(-c3ccccc3)c12` [compound 132, ethyl 5-((2-fluoro-5-methoxybenzyl)amino)-8-phenylimidazo[1,5-c]pyrimidine-1-carboxylate]: the IC50 is more than 100 nM.

Regarding `CCOC(=O)c1ncn2c(NCc3c(F)ccc(OC)c3Cl)ncc(-c3ccccc3)c12` [compound 133, ethyl 5-((2-chloro-6-fluoro-3-methoxybenzyl)amino)-8-phenylimidazo[1,5-c]pyrimidine-1-carboxylate], the IC50 was more than 100 nM.

As to `CCOC(=O)c1ncn2c(NCc3cccc4c3OCO4)ncc(-c3ccccc3)c12` [compound 134, ethyl 5-((benzo[d][1,3]dioxol-4-ylmethyl)amino)-8-phenylimidazo[1,5-c]pyrimidine-1-carboxylate], the IC50 is more than 100 nM.

As for `CCOC(=O)c1ncn2c(NCc3c(F)ccc4c3CCO4)ncc(-c3ccccc3)c12` [compound 135, ethyl 5-(((5-fluoro-2,3-dihydrobenzofuran-4-yl)methyl)amino)-8-phenylimidazo[1,5-c]pyrimidine-1-carboxylate], the IC50 was 7.07 nM.

With `CNC(=O)c1ncn2c(NCc3ccccc3OC)ncc(-c3ccccc3)c12` [compound 136, 5-((2-methoxybenzyl)amino)-N-methyl-8-phenylimidazo[1,5-c]pyrimidine-1-carboxamide], the IC50 is more than 100 nM.

Turning to `CNC(=O)c1ncn2c(NCc3c(F)cccc3OC)ncc(-c3ccccc3)c12` [compound 137, 5-((2-fluoro-6-methoxybenzyl)amino)-N-methyl-8-phenylimidazo[1,5-c]pyrimidine-1-carboxamide], the IC50 was more than 100 nM.

The same test, now with this note: Homo sapiens, KARPAS-422, 168 h, read-out: Karpas Cell line (nM).
In the case of `Cc1ccc(-c2cnc(NCc3c(F)ccc4c3CCO4)n3cnc(S(C)(=O)=O)c23)cn1` [compound 103, N-((5-fluoro-2,3-dihydrobenzofuran-4-yl)methyl)-8-(6-methylpyridin-3-yl)-1-(methylsulfonyl)imidazo[1,5-c]pyrimidin-5-amine], the IC50 was 1.88 nM.

`CS(=O)(=O)c1ccc(-c2cnc(NCc3c(F)ccc4c3CCO4)n3cnc(S(C)(=O)=O)c23)cn1` [compound 105, N-((5-fluoro-2,3-dihydrobenzofuran-4-yl)methyl)-1-(methylsulfonyl)-8-(6-(methylsulfonyl)pyridin-3-yl)imidazo[1,5-c]pyrimidin-5-amine]: the IC50 turned out to be 10.8 nM.

For the origin of these results see US12145944B2, “Imidazopyrimidines as EED inhibitors and the use thereof” (THE REGENTS OF THE UNIVERSITY OF MICHIGAN, priority 2019, dated 2024).
